Test results: US8791267B2, “Biaryl PDE4 inhibitors for treating inflammatory, cardiovascular and CNS disorders” (Decode Genetics EHF, priority 2007, dated 2014)
pIC50: −log10 of the molar value. Counter-ions that a name gives are not always drawn. Like-named read-outs stand apart in the source and are kept apart here.

Tests used:
PDE4B = PDE4B (Homo sapiens, UniProt Q07343); assay: In-vitro assay for PDE4 enzymes, real-time enzyme-coupled spectrophotometric assay, PDE4B Activity (Table 10); type: biochemical
Chain of PDE4B (Q07343 whole entry): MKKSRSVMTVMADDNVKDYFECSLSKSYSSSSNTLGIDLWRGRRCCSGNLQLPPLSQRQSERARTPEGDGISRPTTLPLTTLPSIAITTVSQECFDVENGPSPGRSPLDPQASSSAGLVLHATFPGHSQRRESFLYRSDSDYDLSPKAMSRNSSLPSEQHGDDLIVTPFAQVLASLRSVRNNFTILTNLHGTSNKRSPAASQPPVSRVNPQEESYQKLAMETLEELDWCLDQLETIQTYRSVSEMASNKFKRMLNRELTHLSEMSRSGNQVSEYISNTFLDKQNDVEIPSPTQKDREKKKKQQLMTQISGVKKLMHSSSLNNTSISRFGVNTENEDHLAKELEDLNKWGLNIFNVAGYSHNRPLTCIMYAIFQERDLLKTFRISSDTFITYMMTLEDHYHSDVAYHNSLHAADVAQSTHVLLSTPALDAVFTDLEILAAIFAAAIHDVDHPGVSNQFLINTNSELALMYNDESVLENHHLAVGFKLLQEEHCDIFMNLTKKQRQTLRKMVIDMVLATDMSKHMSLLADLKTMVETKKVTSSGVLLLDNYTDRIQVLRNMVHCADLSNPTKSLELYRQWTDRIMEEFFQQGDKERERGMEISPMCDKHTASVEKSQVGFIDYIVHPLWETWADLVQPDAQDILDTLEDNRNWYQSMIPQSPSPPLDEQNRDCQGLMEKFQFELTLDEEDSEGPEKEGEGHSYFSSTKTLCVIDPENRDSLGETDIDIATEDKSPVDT

PDE4 = PDE4 (Homo sapiens, UniProt Q08499); assay: In-vitro assay for PDE4 enzymes, real-time enzyme-coupled spectrophotometric assay (Table 9); type: biochemical
Chain of PDE4 (Q08499 whole entry): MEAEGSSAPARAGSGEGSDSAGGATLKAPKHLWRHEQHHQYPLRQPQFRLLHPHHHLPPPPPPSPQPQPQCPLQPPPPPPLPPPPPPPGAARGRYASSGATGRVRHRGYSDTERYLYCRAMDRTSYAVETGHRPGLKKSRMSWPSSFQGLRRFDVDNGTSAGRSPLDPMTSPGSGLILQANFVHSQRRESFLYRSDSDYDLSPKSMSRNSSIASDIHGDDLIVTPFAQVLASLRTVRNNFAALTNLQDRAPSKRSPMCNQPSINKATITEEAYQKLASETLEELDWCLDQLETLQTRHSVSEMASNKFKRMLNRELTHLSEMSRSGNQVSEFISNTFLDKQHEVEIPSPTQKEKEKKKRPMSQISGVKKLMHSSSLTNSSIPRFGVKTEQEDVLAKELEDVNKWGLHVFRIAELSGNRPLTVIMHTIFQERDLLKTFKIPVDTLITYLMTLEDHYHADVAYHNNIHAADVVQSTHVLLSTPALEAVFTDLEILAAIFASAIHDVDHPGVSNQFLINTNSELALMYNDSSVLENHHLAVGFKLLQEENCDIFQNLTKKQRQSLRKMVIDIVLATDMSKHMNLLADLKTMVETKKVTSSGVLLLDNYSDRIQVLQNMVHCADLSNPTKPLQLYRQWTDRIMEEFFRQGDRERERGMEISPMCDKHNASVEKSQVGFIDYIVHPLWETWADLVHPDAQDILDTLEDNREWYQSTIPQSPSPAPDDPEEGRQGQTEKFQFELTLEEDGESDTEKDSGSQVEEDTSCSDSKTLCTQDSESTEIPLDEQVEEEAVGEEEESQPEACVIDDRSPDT

[1] = human PDE4B (hPDE4B), enzyme-coupled spectrophotometric assay, read-out: PDE4B Activity, hPDE4B
[2] = human PDE4D, activity class, Table 9, read-out: hPDE4D

Compound	pIC50 (PDE4B; [1])	pIC50 (PDE4; [2])	pIC50 (PDE4B)	pIC50 (PDE4)
COc1ccc(Oc2ccc(N)nc2)c(F)c1-c1cccc(C#N)c1 [P-439, 5-(3′-Cyano-2-fluoro-6-methoxy-biphenyl-3-yloxy)-pyridin-2-yl-ammonium chloride]	> 5.30	> 5.30	–	–
COc1ccc(Cc2ccc(C(=O)N(C)C)nc2)c(F)c1-c1cccc(Cl)c1 [P-382, 5-(3′-Chloro-2-fluoro-6-methoxy-biphenyl-3-ylmethyl)-pyridine-2-carboxylic acid dimethylamide]	> 5.30	> 5.30	–	–
COc1ccc(CN2CCCC2=O)cc1-c1cccc([N+](=O)[O-])c1 [P-029, 1-(6-Methoxy-3′-nitro-biphenyl-3-ylmethyl)-pyrrolidin-2-one]	> 5.30	> 5.30	–	–
COc1ccc(CN2CCCC2=O)cc1-c1ccc(F)c(F)c1 [P-223, 1-(3′,4′-difluoro-6-methoxy-biphenyl-3-ylmethyl)-pyrrolidin-2-one]	4.70 to 5.30	4.70 to 5.30	–	–
COc1ccc(Cc2ccc(NC(N)=O)cc2)c(F)c1-c1cccc(C#N)c1 [P-413]	> 5.30	> 5.30	–	–
COc1ccc(Cc2ccc(N(C)C)nc2)c(F)c1-c1cccc(C(C)=O)c1 [P-332, 1-[3′-(6-Dimethylamino-pyridin-3-ylmethyl)-2′-fluoro-6′-methoxy-biphenyl-3-yl]-ethanone]	> 5.30	> 5.30	–	–
CCOc1ccc(Cc2ccc(N)cc2)c(F)c1-c1cccc(C(C)=O)c1 [P-334, 1-[3′-(4-Amino-benzyl)-6′-ethoxy-2′-fluoro-biphenyl-3-yl]-ethanone; hydrochloride]	> 5.30	> 5.30	–	–
COc1ccc(Cn2ccc(C(N)=O)cc2=O)cc1-c1cccc([N+](=O)[O-])c1 [P-207, 1-(6-Methoxy-3′-nitro-biphenyl-3-ylmethyl)-2-oxo-1,2-dihydro-pyridine-4-carboxylic acid amide]	> 5.30	4.70 to 5.30	–	–
COc1ccc(CN2C(=O)CC[C@H]2CN)cc1-c1cccc([N+](=O)[O-])c1 [P-155, (S)-5-Aminomethyl-1-(6-methoxy-3′-nitro-biphenyl-3-ylmethyl)-pyrrolidin-2-one]	4.70 to 5.30	4.40 to 4.70	–	–
CNc1ccc(Cc2ccc(OC)c(-c3cccc(C(C)=O)c3)c2F)cc1 [P-331, [4-(3′-Acetyl-2-fluoro-6-methoxy-biphenyl-3-ylmethyl)-phenyl]-methyl-amine hydrochloride]	> 5.30	> 5.30	–	–
COc1ccc(CN2C(=O)CC[C@@H]2CN)cc1-c1cccc([N+](=O)[O-])c1 [P-156, (R)-5-Aminomethyl-1-(6-methoxy-3′-nitro-biphenyl-3-ylmethyl)-pyrrolidin-2-one]	> 5.30	> 5.30	–	–
COc1ccc(CN2C(=O)CC[C@H]2CO)cc1-c1cccc([N+](=O)[O-])c1 [P-131, (S)-5-Hydroxymethyl-1-(6-methoxy-3′-nitro-biphenyl-3-ylmethyl)-pyrrolidin-2-one]	4.70 to 5.30	4.70 to 5.30	–	–
CCNC(=O)Nc1nc(Cc2ccc(OC)c(-c3cccc(Cl)c3)c2F)cs1 [P-346, 1-[4-(3′-Chloro-2-fluoro-6-methoxy-biphenyl-3-ylmethyl)-thiazol-2-yl]-3-ethyl-urea]	4.70 to 5.30	> 5.30	–	–
COc1ccc(Cc2ccnn2C)cc1-c1ccc2c(c1)OCO2 [P-075, 5-(3-Benzo[1,3]dioxol-5-yl-4-methoxy-benzyl)-1-methyl-1H-pyrazole]	> 5.30	> 5.30	–	–
CCNC(=O)Nc1ccc(Cc2ccc(OC)c(-c3cccc(Cl)c3)c2F)c[n+]1[O-] [P-397, 1-[5-(3′-Chloro-2-fluoro-6-methoxy-biphenyl-3-ylmethyl)-1-oxy-pyridin-2-yl]-3-ethyl-urea]	> 5.30	> 5.30	–	–
CCNC(=O)NCc1ccc(Cc2ccc(OC)c(-c3cccc(Cl)c3)c2F)cn1 [P-372, 1-[5-(3′-Chloro-2-fluoro-6-methoxy-biphenyl-3-ylmethyl)-pyridin-2-ylmethyl]-3-ethyl-urea]	> 5.30	> 5.30	–	–
COC(=O)c1cccc(-c2cc(Cn3cncn3)ccc2OC)c1 [P-022, 2′-Methoxy-5′-[1,2,4]triazol-1-ylmethyl-biphenyl-3-carboxylic acid methyl ester]	4.70 to 5.30	> 5.30	–	–
COc1ccc(Cc2ccc(CNC(=O)Oc3ccccc3)nc2)cc1-c1cccc(Cl)c1 [P-592, [5-(3′-Chloro-6-methoxy-biphenyl-3-ylmethyl)-pyridin-2-ylmethyl]-carbamic acid phenyl ester]	–	–	> 5.30	> 5.30
COc1ccc([C@](C)(O)c2ccc(NC(C)=O)cc2)c(F)c1-c1cccc(Cl)c1 (single isomer, unassigned) [P-560]	4.70 to 5.30	4.70 to 5.30	–	–
COc1ccc(Cc2ccc(C#N)nc2)c(F)c1-c1cccc(Cl)c1 [P-355]	> 5.30	> 5.30	–	–
COc1ccc(Cn2cnc(CO)c2)cc1-c1cccc([N+](=O)[O-])c1 [P-154, [1-(6-Methoxy-3′-nitro-biphenyl-3-ylmethyl)-1H-imidazol-4-yl]-methanol]	> 5.30	> 5.30	–	–
COc1ccc(Cn2ccccc2=O)cc1-c1cccc(C(C)=O)c1 [P-179, 1-(3′-Acetyl-6-methoxy-biphenyl-3-ylmethyl)-1H-pyridin-2-one]	4.70 to 5.30	4.70 to 5.30	–	–
COc1ccc(Cc2ccc(NC(N)=O)cc2)cc1-c1cccc(Cl)c1 [P-378, [4-(3′-chloro-6-methoxy-biphenyl-3-ylmethyl)-phenyl]-urea]	> 5.30	> 5.30	–	–

Compound	pIC50 (PDE4B; [1])	pIC50 (PDE4; [2])	pIC50 (PDE4B)	pIC50 (PDE4)
COc1ccc(Cc2ccc(-n3ccnc3)nc2)c(F)c1-c1cccc(Cl)c1 [P-573, 5-(3′-chloro-2-fluoro-6-methoxy-biphenyl-3-ylmethyl)-2-imidazol-1-yl-pyridine]	> 5.30	> 5.30	–	–
COc1ccc(Oc2ccc(F)cc2)cc1-c1cccc([N+](=O)[O-])c1 [P-193, 5-(4-Fluoro-phenoxy)-2-methoxy-3′-nitrobiphenyl]	> 5.30	> 5.30	–	–
COc1c(F)cc(Cc2ccc(NC(N)=O)cc2)cc1-c1cccc(Cl)c1 [P-550, [4-(3′-chloro-5-fluoro-6-methoxy-biphenyl-3-ylmethyl)-phenyl]-urea]	> 5.30	> 5.30	–	–
COc1ccc(Cc2cnc(O[C@@H]3CCN(C)C3)nc2)c(F)c1-c1cccc(Cl)c1 [P-406, 5-(3′-Chloro-2-fluoro-6-methoxy-biphenyl-3-ylmethyl)-2-((R)-1-methyl-pyrrolidin-3-yloxy)-pyrimidine]	> 5.30	> 5.30	–	–
COc1ccc(Cc2ccc(CNC(N)=O)c(F)c2)c(F)c1-c1cccc(Cl)c1 [P-287]	> 5.30	> 5.30	–	–
COc1ccc(CN2CCNC2=O)nc1-c1cccc([N+](=O)[O-])c1 [P-033, 1-[5-methoxy-6-(3-nitro-phenyl)-pyridin-2-ylmethyl]-imidazolidin-2-one]	4.70 to 5.30	4.70 to 5.30	–	–
COc1ccc(Cc2ccnc(N3CCNCC3)c2)c(F)c1-c1cccc(Cl)c1 [P-515, 1-[4-(3′-Chloro-2-fluoro-6-methoxy-biphenyl-3-ylmethyl)-pyridin-2-yl]-piperazine]	> 5.30	> 5.30	–	–
COc1ccc(Cc2ccc(F)cc2)c(O)c1-c1cccc([N+](=O)[O-])c1 [P-099, 3-(4-Fluoro-benzyl)-6-methoxy-3′-nitro-biphenyl-2-ol]	> 5.30	> 5.30	–	–
COc1ccc(Cc2cnc(N)nc2)c(F)c1-c1cccc(C#N)c1 [P-395, 3′-(2-Amino-pyrimidin-5-ylmethyl)-2′-fluoro-6′-methoxy-biphenyl-3-carbonitrile]	> 5.30	> 5.30	–	–
CCNC(=O)Nc1ccc(Cc2ccc(OC)c(-c3cccc(Cl)c3)c2F)cn1 [P-356]	> 5.30	> 5.30	–	–
COc1ccc(Cn2cnc(C(N)=O)c2)c(F)c1-c1cccc(Cl)c1 [P-534, 1-(3′-Chloro-2-fluoro-6-methoxy-biphenyl-3-ylmethyl)-1H-imidazole-4-carboxylic acid amide]	> 5.30	> 5.30	–	–
COc1ccc(Cc2ccc(NC(N)=O)cc2)c(F)c1-c1cccc(C(C)=O)c1 [P-269, [4-(3′-Acetyl-2-fluoro-6-methoxy-biphenyl-3-ylmethyl)-phenyl]urea]	> 5.30	> 5.30	–	–
COc1ccc(Cc2ccc(F)cc2)nc1-c1cccc([N+](=O)[O-])c1 [P-023, 6-(4-fluoro-benzyl)-3-methoxy-2-(3-nitro-phenyl)-pyridine]	4.70 to 5.30	> 5.30	–	–
COc1ccc(CN2CCCC2=O)cc1-c1cccc(SC)c1 [P-245, 1-(6-methoxy-3′-methylsulfanyl-biphenyl-3-ylmethyl)-pyrrolidin-2-one]	> 5.30	4.70 to 5.30	–	–
COc1ccc(Cc2ccccc2CO)cc1-c1cccc([N+](=O)[O-])c1 [P-134, [2-(6-Methoxy-3′-nitro-biphenyl-3-ylmethyl)-phenyl]-methanol]	4.70 to 5.30	> 5.30	–	–
COc1ccc(Cc2ccc(C(C)(C)N)nc2)cc1-c1cccc(Cl)c1 [P-600, hydrochloride]	4.40 to 4.68	> 5.30	–	–
COc1ccc(Cc2ccc(NC(N)=O)cc2)c(F)c1-c1cccc(Br)c1 [P-347]	> 5.30	> 5.30	–	–
COc1ccc(CN2CCNC2=O)cc1-c1cccc([N+](=O)[O-])c1 [P-034, 1-(6-Methoxy-3′-nitro-biphenyl-3-ylmethyl)-imidazolidin-2-one]	> 5.30	> 5.30	–	–
COc1ccc(Cc2ccc(NS(C)(=O)=O)cc2)c(F)c1-c1cccc(C(C)=O)c1 [P-249]	> 5.30	> 5.30	–	–
COc1ccc(Cc2ccc(C#N)c(F)c2)c(F)c1-c1cccc(Cl)c1 [P-274]	> 5.30	> 5.30	–	–
COc1ccc(Cc2ccc(-n3cncn3)nc2)c(F)c1-c1cccc(Cl)c1 [P-412]	> 5.30	> 5.30	–	–
CCNC(=O)Nc1ccc(Cc2ccc(OC)c(-c3cccc(Cl)c3)n2)cn1 [P-386, 1-{5-[6-(3-chloro-phenyl)-5-methoxy-pyridin-2-ylmethyl]-pyridin-2-yl}-3-ethyl-urea hydrochloride]	> 5.30	> 5.30	–	–
